These results are taken from a melting point compilation (Tetko et al.; mined from patent text by program, amines drawn as free bases though some values may be those of a salt).

Broadly, the melting point is the temperature, or range, at which the solid turns liquid. Compound `COC(=O)C1=C(C)NC(CC(=O)N2CCN(C3CC4CCC(C3)N4C(=O)OC(C)Cl)CC2)=C(C(=O)OC)C1c1c(Cl)cccc1Cl` (stereo unspecified) yielded a melting point of 135 to 145 °C.
Then `CCOC(=O)C(=NOC)C1=CSCCS1`, with 65 to 67 °C; and `CNc1ccc(C=CC(=O)N2CCc3c([nH]c4ccccc34)C2c2ccc3c(c2)CCO3)cn1` (stereo unspecified), with 171 °C.
Then `CCOC(=O)c1ccc(NCCOc2ccc(Cl)cc2Cl)cc1`, with 111 to 113 °C.
The value for `Brc1cc2c(nc1-c1ccccc1)OCC2` was 83.5 to 85.5 °C; that for `Cc1nn(C)c(Oc2ccc([N+](=O)[O-])cc2[N+](=O)[O-])c1C(=O)c1ccc(Cl)cc1Cl` was 190 to 192 °C; that for `CCCCCCOc1cc(N(CC)CC)ccc1C1(c2c(C)n(CC)c3ccccc23)OC(=O)c2cccnc21` (stereo unspecified) was 154 to 156 °C.
Consider `COc1cc2c(c(OC(=O)Cc3ccccc3)c1OC)=NC(=O)C(=O)N=2`, for which the melting point was 298 to 300 °C.
For the compound `N#C[C@@H](NCc1ccccc1)[C@@H]1CSC(=O)N1Cc1ccccc1`, the melting point was 131 to 132 °C.
Then `C#CCN(Cc1cc2c(=O)n(C)c(CN3CCN(CC)CC3)nc2cc1Cl)c1ccc(C(=O)OC(C)(C)C)cc1`, with 145 to 146 °C; and `c1cncc(-c2ccc3nncn3n2)c1`, with 199 to 200 °C; and `CC(C)(C)Cc1c(CC(C)(C)C(=O)O)n(Cc2ccc(Cl)cc2)c2ccc(OCc3ccc4ccccc4n3)cc12`, with 172 °C.
Compound `COCCNC(=O)c1ccc(C(=O)N2CCN(c3ncccc3NC(C)C)CC2)cc1` returned a melting point of 120 to 121 °C.
`COC(=O)N(CO)c1ccc(OCc2nc3ccccc3s2)cc1C` displayed a melting point of 121 to 123 °C.
As to `COc1ccc(-c2cc(C(F)F)nn2-c2ccc(S(N)(=O)=O)cc2)cc1F`, the melting point fell in the range of 159 to 161 °C.
Then `C#CC1(c2ccc(OC)c(OC3CCCC3)c2)CC(=O)C1`, with 58 to 59 °C; and `CCCCCCCCCCCCCCCCCCNC(=O)OCC(CNS(=O)(=O)CCCI)n1nnnc1C` (stereo unspecified), with 82.5 to 83.5 °C; and `CC1=C(C(=O)OC(C)(C)C)C(c2cc(Cl)ccc2Cl)C(C(=O)OC(C)(C)C)=C(C)N1`, with 181 to 183 °C.
The value for `O=C(c1cccc([N+](=O)[O-])c1)n1nc(O)c2ccccc21` was 232 to 234 °C; that for `CS(=O)(=O)c1ccc(OCC2CCN(CC3CC3)CC2)cc1` was 134 to 135 °C.
In the case of `CCOC(=O)c1c(C)nc2scnc2c1NC(C)C`, the melting point fell in the range of 48 to 50 °C.
For `COc1ccc2sc(C(N)=O)c(SCC(=O)O)c2c1`, the melting point lay within 126 to 127 °C.
The compound `CCNCC1CCN(c2c(F)cc3c(=O)c(C(=O)O)cn(-c4ccc(F)cc4)c3c2F)C1` (stereo unspecified) came in with a melting point of 249 to 251 °C.
Compound `C#CCNC(=O)c1cccc(-c2cccc(OCCc3ccc(OC)c(OC)c3)n2)c1` showed a melting point of 142 to 143 °C.
Regarding `COc1ccc(C(O)CN2CCN(C(c3ccccc3)c3ccccc3)CC2)cc1OC` (stereo unspecified), the melting point came to 85 °C.
The value for `COc1cccc(C(=O)Nc2nc(C)c(C(=O)NCc3ccccc3)s2)c1` was 75 to 77 °C; that for `C=CCn1c(=O)c2c(nc(/C=C/c3cc(OC)c(O)c(OC)c3)n2C)n(CC=C)c1=O` was 239 to 240 °C.
For the compound `CC1C(=O)Oc2cc(N3CCCCCC3)ccc21` (stereo unspecified), the melting point was in the range of 57 to 59 °C.
As to `COc1cc(-n2cc(C(=O)O)c(=O)c3cc(F)c(F)c(C)c32)ccc1F`, the melting point was more than 280 °C.
On to `O=C(Oc1ccc2c(=O)cc(N3CCOCC3)oc2c1)c1ccccc1`, for which the melting point is 204 to 206 °C.
The value for `COC(=O)CNc1ccc2c(c1)OCO2` was 105 to 106 °C; that for `CCCOc1ccc(S(C)(=O)=O)cc1-c1nc2c(CC)n(CC3CC3)nc2c(=O)[nH]1` was 233 to 234 °C.
In turn, `COCc1cnc2c(NC(=O)c3c(Cl)cccc3Cl)cccc2c1Cl` returned a melting point of 177 °C.
The compound `CC(C)(CO)n1cnc2c(N)nc3ccccc3c21` yielded a melting point of 277 to 281 °C.
Compound `C=CCOc1ccc(C)c2c1C(=O)C1CCCCC21` (stereo unspecified) showed a melting point of 106 to 107 °C.
Turning to `O=C1O[C@@H](CO)CN1c1ccc(C2=CCSCC2)c(F)c1`, the melting point is 119 to 122 °C.
Compound `CSc1ncc(Cc2ccncc2)c(=O)[nH]1` had a melting point of 179 to 182 °C.
The value for `COc1ccc(COc2cncc3c2C(=O)c2c(F)ccc(Cl)c2C3=O)cc1` was 155 to 157 °C.
Then `O=C(NCCO)c1csc(-c2cccc([N+](=O)[O-])c2)n1`, with 145 to 146 °C; and `O=C1N(Cc2ccc(C(F)(F)F)o2)c2ccccc2C12COc1cc3c(cc12)OCO3` (stereo unspecified), with 103 to 105 °C; and `COC=C(C(=O)OC)c1ccccc1Oc1ccn(-c2ccc(Cl)cc2)n1`, with 109 to 110 °C.
As for `C[C@H](NC(=O)OC(C)(C)C)C(=O)NC1CCC(Nc2cccc3c2C(=O)c2ccccc2C3=O)CC1` (stereo partly specified), the melting point came out at 151 °C.
The value for `Cn1c(=O)oc(=O)c2ccc(F)cc21` was 158 to 160 °C; that for `COCCOc1ccc(/C=C(\C)C(=O)NS(=O)(=O)c2ccc(Cl)cc2)c(Oc2ncc(C(F)(F)F)cc2Cl)c1` was 146 °C.
Then `C=CCc1cc(CCC(=O)OCC)ccc1C#CC1(O)CN2CCC1CC2` (stereo unspecified), with 55 to 56 °C.
The compound `N#Cc1ccc(N2C(=O)NC3(CCCC3)C2=O)cc1C(F)(F)F` displayed a melting point of 184 to 185 °C.
Then `CC(C)(Cc1ccccc1)C(NC(=O)c1ccc(Cl)cc1)NC(=NC#N)Nc1cccnc1` (stereo unspecified), with 182 to 183 °C; and `O=C(Oc1cc(F)ccc1F)c1cc2ccccc2oc1=O`, with 134 to 137 °C.
The compound `COC(=O)C(O)c1ccccc1Nc1c(Cl)cccc1Cl` (stereo unspecified) registered a melting point of 123 to 124 °C.
In turn, `Cn1cncc1C(O)(c1ccc(Cl)cc1)c1ccc2c(c1)C(c1cccc(Cl)c1)SCC(=O)N2CC1CC1` (stereo unspecified) registered a melting point of 245 °C.
Regarding `O=C(c1cccs1)c1cnn2c(-c3cccc(NCC=C(c4ccccc4)c4ccccc4)c3)ccnc12`, the melting point was in the range of 156 to 158 °C.
Consider `COC(=O)c1ccc(OCCNC(=O)C2Cc3ccccc3N2S(=O)(=O)c2ccc(-c3cccc(C(F)(F)F)c3)cc2)c(C(F)(F)F)c1` (stereo unspecified), for which the melting point fell in the range of 92 to 98 °C.
Then `COC(=O)c1cncnc1NCc1ccncc1`, with 111 to 112 °C; and `O=C(Nc1ccc(-n2nccn2)c(F)c1)OCc1ccccc1`, with 99.5 to 101 °C.
`O=CN1CCN(c2nn(-c3ccccc3)c3ccccc23)CC1` displayed a melting point of 130 to 132 °C.
Consider `COc1cc(N)c(Cl)cc1C(=O)Cl`, for which the melting point is 242 °C.
The compound `CNc1nc(N(C)C)nc2c1nnn2Cc1ccccc1F` showed a melting point of 199 to 200 °C.
Then `N#CC(CN)C(CO)c1ccc(Cl)c(Cl)c1` (single isomer, unassigned; (+)), with 80 to 81 °C.
The value for `OC(CN=CCc1cnc(-c2ccccc2)nc1-c1ccccc1)c1ccccc1` (stereo unspecified) was 140 to 144 °C; that for `CC1CN(c2ccccc2)c2ccccc2N1` (stereo unspecified) was 91 to 93 °C; that for `CCC1CC(=O)N(Cc2ccc(N)cc2)N=C1c1ccc(OC)c(OC2CCCC2)c1` (stereo unspecified) was 109 °C.
`CCCCN(CCCC)c1ccc(C=Cc2ccc(C(C#N)=c3ccc(=C(C#N)C#N)cc3)s2)c(OC)c1` registered a melting point of 211 to 214 °C.
Then `O=C(O)COCN(c1ccc(CN2CCN(Cc3ccccc3)C(=O)C2=O)cc1)c1ncccn1`, with 85 to 90 °C; and `Cc1ccccc1CC1=NNC(=O)CC1`, with 123 to 125 °C.
The value for `CCNC(=O)c1ccc(-c2ccc3nnn(C(C)(C)c4ccc5ncccc5c4)c3n2)cc1F` was 132 to 135 °C; that for `CCOC(=O)NC(=NC(=O)c1nc(Cl)c(N)nc1N)NC(=O)OCC` was 213 °C; that for `Cn1c(-c2ccccc2)cc(O)c(C(=N)c2ccccc2)c1=O` was 238 to 240 °C.
Then `CCCCCCCCCCCCCCOc1ccc(CNc2ccc(CO)cc2)cc1`, with 85 to 87 °C; and `COC(=O)c1sccc1S(=O)(=O)NC(=O)Nc1nc(OC)c2cc(C)oc2n1`, with 194 to 196 °C; and `CC(=O)Nc1cc(C)c(O)cc1C`, with 183 °C.
In the case of `CC(=O)N1CCC(CC(=O)O)CC1`, the melting point was determined as 124 °C.
The compound `COC(=O)c1cccc(-c2cccc(CC(=O)O)c2)c1` showed a melting point of 84.5 to 85.5 °C.
`Clc1ccc2c(c1)N=C(N1CCCN(C3CC3)CC1)c1ccccc1N2`: the melting point fell in the range of 141 to 143 °C.
The compound `COC(=O)c1ccc(CO)cc1N` yielded a melting point of 100 to 102 °C.
For the compound `CCCNC(=O)N(CC(=O)OCC)CC1CC2c3cccc4[nH]cc(c34)CC2N(C)C1` (stereo unspecified), the melting point lay in the range of 109 to 110 °C.
The value for `O=C(CCc1ccc(NC(=O)C(F)(F)F)c([N+](=O)[O-])c1)N1CCCCC1` was 102 to 103 °C; that for `Cc1cc(CCCCCCCCCCc2cc(C)c(O)c(C(C)(C)C)c2)cc(C(C)(C)C)c1O` was 96 to 98 °C; that for `CC(C)C(=O)Oc1cccc2c1C(=O)c1c(O)cccc1C2C(=O)C1CCCCC1` (stereo unspecified) was 146 °C.
Compound `Cn1cc(-c2ccc(C(=O)N3Cc4cccn4Cc4ccccc43)c(Cl)c2)cn1` came in with a melting point of 105 to 109 °C.
Then `N#CCCNC(=O)c1cccc(-c2cccc3c(F)c(Cc4cccc(C(F)(F)F)c4)sc23)c1`, with 66 to 67 °C; and `CCCCCCCCCCCCNC(=O)COc1ccc(/C=C/C(=O)C(F)(F)F)cc1`, with 78.5 to 79 °C.
Take `CCOC(=O)C1=C(C)NC(SCc2ccccc2)=NC1c1cccc([N+](=O)[O-])c1` (stereo unspecified): the melting point lay in the range of 129 to 130 °C.
Compound `CCCCCCCCCCCCCCC1C(=O)OC2OC3(C)CCC4C(C)CCC1C24OO3` (single isomer, unassigned; (+)) yielded a melting point of 65 to 66 °C.
For the compound `COc1cc([N+](=O)[O-])ccc1COP(N)(=O)N(CCCl)CCCl` (stereo unspecified), the melting point lay in the range of 102 to 104 °C.
The value for `O=C(Nc1ccc(Cl)cc1)C(Cl)CCl` (stereo unspecified) was 128 to 129 °C.
With `CCCCc1cc2cn(C3CCCC3)c(=O)nc2o1`, the melting point fell in the range of 130 to 131 °C.
